This passage reports IC50 results from patent US20140315933A1, “CHEMICAL COMPOUNDS” (Pfizer Limited, priority 2013, published 2014).

Where a name gives a salt, the structure may show the parent alone.

The target of this experiment is T1, URAT-1 transporter (Homo sapiens, UniProt Q96S37).
T1 construct: expressed in transfected cells
T1 sequence (Q96S37 with tags, fused parts or gaps): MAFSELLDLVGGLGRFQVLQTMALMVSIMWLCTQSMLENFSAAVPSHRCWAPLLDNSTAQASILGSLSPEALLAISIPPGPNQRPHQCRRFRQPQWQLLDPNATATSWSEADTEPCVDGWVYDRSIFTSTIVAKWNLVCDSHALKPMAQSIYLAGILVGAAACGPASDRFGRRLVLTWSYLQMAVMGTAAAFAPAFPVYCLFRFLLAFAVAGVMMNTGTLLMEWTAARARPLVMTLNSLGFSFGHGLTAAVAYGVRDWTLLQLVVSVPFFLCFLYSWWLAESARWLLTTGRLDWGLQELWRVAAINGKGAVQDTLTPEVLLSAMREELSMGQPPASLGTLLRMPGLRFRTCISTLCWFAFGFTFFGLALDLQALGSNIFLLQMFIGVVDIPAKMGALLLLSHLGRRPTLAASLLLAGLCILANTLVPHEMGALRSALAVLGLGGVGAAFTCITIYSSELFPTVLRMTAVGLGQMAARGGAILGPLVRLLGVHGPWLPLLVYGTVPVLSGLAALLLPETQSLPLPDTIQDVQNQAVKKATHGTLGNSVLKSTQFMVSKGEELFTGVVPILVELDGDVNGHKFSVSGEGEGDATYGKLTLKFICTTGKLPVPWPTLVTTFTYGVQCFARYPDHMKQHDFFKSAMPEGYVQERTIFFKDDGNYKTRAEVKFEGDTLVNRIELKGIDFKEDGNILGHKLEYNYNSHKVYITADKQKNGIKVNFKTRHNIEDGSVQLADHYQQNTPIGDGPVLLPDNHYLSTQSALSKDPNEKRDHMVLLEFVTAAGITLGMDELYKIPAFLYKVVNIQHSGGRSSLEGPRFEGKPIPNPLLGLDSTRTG
As to the kind of experiment: URAT-1 inhibitor activity: [14C]-uric acid uptake into CHO-URAT1(L)GFP#8 (CHO#8) cells, scintillation proximity. Type of experiment: cell-based. The procedure, abridged:
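Scintillation proximity read-out of 30 nM (final) [14C]-uric acid uptake over three hours at room temperature in chloride-free HEPES buffer pH 7.4. Compounds, 0–10 μM final with 0.25% DMSO, were added 15 minutes before substrate; cells were a clonal CHO line with human URAT1(L)-eGFP, preincubated 1 hour in chloride buffer.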
On to `N#Cc1cc(Oc2c(F)cc(S(=O)(=O)Nc3ncns3)cc2F)ccc1F` [compound 205], for which the IC50 (usually the concentration that gives 50% inhibition) was above 6810 nM.

In turn, `N#Cc1cc(Oc2ccc(S(=O)(=O)Nc3ncns3)cc2C#N)ccc1F` [compound 206] returned an IC50 above 3320 nM.

`N#Cc1cc(Oc2ccc(S(=O)(=O)Nc3ncns3)cc2Cl)ccc1F` [compound 207] gave an IC50 of 747 nM.

As to `N#Cc1ccc(Oc2cc(F)c(S(=O)(=O)Nc3ncns3)cc2F)cc1Cl` [compound 208, 4-(3-chloro-4-cyanophenoxy)-2,5-difluoro-N-(1,2,4-thiadiazol-5-yl)benzenesulfonamide], the IC50 amounted to 1790 nM.

Take `O=S(=O)(Nc1nncs1)c1cc(F)c(Oc2ccc(F)c(F)c2)cc1F` [compound 209]: the half-maximal inhibitory concentration (IC50) was above 7250 nM.

Take `N#Cc1ccc(Oc2ccc(S(=O)(=O)Nc3ncns3)cc2Cl)cc1Cl` [compound 210]: half-maximal inhibition (IC50) was put at 1610 nM. That is a single-digit micromolar value.

`Cc1cc(S(=O)(=O)Nc2ncns2)ccc1Oc1ccc(F)c(F)c1` [compound 211]: the IC50 worked out at 1110 nM.

In turn, `N#Cc1cc(S(=O)(=O)Nc2ncns2)ccc1Oc1ccc(F)c(F)c1` [compound 212] returned an IC50 of 782 nM.

The compound `N#Cc1cc(Oc2cc(F)c(S(=O)(=O)Nc3ncns3)cc2F)ccc1F` [compound 213] gave an IC50 of 2040 nM. Against the preceding compound, the IC50 is about 2.6-fold higher.

Regarding `Cc1cc(S(=O)(=O)Nc2nncs2)c(F)cc1Oc1ccc(F)c(C#N)c1` [compound 214], the IC50 is above 10000 nM.

Consider `N#Cc1ccc(Oc2c(F)cc(S(=O)(=O)Nc3ncns3)cc2F)cc1Cl` [compound 215], for which the IC50 was above 10000 nM.

Turning to `N#Cc1cc(Oc2ccc(S(=O)(=O)Nc3nncs3)cc2Cl)ccc1F` [compound 216], the IC50 came to 1420 nM.

Regarding `N#Cc1cc(Oc2cc(F)c(S(=O)(=O)Nc3nncs3)cc2F)ccc1F` [compound 217], the IC50 was above 10000 nM.

`N#Cc1ccc(Oc2ccc(S(=O)(=O)Nc3ncns3)cc2C#N)cc1Cl` [compound 218] showed an IC50 above 1660 nM.

`N#Cc1ccc(Oc2ccc(S(=O)(=O)Nc3nncs3)cc2C#N)cc1Cl` [compound 219] registered an IC50 of 426 nM.

Compound `N#Cc1ccc(Oc2ccc(S(=O)(=O)Nc3cscn3)cc2C#N)cc1Cl` [compound 220, 4-(3-chloro-4-cyanophenoxy)-3-cyano-N-(1,3-thiazol-4-yl)benzenesulfonamide] gave an IC50 of 110 nM.

Turning to `N#Cc1cc(Oc2cc(F)c(S(=O)(=O)Nc3cscn3)cc2F)ccc1F` [compound 221], the IC50 was above 10000 nM.

`N#Cc1cc(Oc2cc(F)c(S(=O)(=O)Nc3cscn3)cc2Br)ccc1F` [compound 222] showed an IC50 above 3130 nM.

With `Cc1cc(S(=O)(=O)Nc2cscn2)c(F)cc1Oc1ccc(F)c(F)c1` [compound 223], the concentration for half-maximal inhibition (IC50) is above 10000 nM.

With `O=S(=O)(Nc1cscn1)c1ccc(Oc2ccc(F)c(F)c2)cc1F` [compound 224], the IC50 is above 10000 nM.

`N#Cc1ccc(Oc2ccc(S(=O)(=O)Nc3cscn3)c(F)c2)cc1Cl` [compound 225] gave an IC50 of 300 nM.

Consider `O=S(=O)(Nc1nccs1)c1ccc(Oc2ccc(F)c(F)c2)c(F)c1` [compound 226], for which the IC50 was above 10000 nM.

Compound `N#Cc1ccc(Oc2ccc(S(=O)(=O)Nc3cscn3)c(Cl)c2)cc1Cl` [compound 227] had an IC50 above 10000 nM.

In turn, `N#Cc1cc(S(=O)(=O)Nc2cscn2)ccc1Oc1ccc(F)c(F)c1` [compound 228, 3-cyano-4-(3,4-difluorophenoxy)-N-(1,3-thiazol-4-yl)benzenesulfonamide] displayed an IC50 of 123 nM. In other words, the sub-micromolar range.

For the compound `O=S(=O)(Nc1cscn1)c1cc(Cl)c(Oc2ccc(F)c(F)c2)cc1F` [compound 229], the IC50 is above 10000 nM.

In turn, `N#Cc1ccc(Oc2cc(F)c(S(=O)(=O)Nc3cscn3)cc2F)cc1Cl` [compound 231] returned an IC50 above 10000 nM.

As for `N#Cc1ccc(Oc2ccc(S(=O)(=O)Nc3nccs3)cc2F)cc1Cl` [compound 232], the IC50 worked out at 513 nM.

Take `N#Cc1cc(Oc2ccc(S(=O)(=O)Nc3cscn3)c(F)c2)ccc1F` [compound 233]: the IC50 was above 10000 nM.

`O=S(=O)(Nc1cscn1)c1cc(Br)c(Oc2ccc(F)c(F)c2)cc1F` [compound 234] came in with an IC50 above 10000 nM.

Regarding `N#Cc1cc(Oc2cc(F)c(S(=O)(=O)Nc3cscn3)cc2Cl)ccc1F` [compound 235], the IC50 is above 10000 nM.

As to `N#Cc1cc(Oc2ccc(S(=O)(=O)Nc3cscn3)c(Cl)c2)ccc1F` [compound 236], the IC50 was above 10000 nM.

As to `O=S(=O)(Nc1cscn1)c1ccc(Oc2ccc(F)c(F)c2)cc1Cl` [compound 237], the IC50 is above 10000 nM.

`O=S(=O)(Nc1cscn1)c1cc(F)c(Oc2ccc(F)c(F)c2)cc1F` [compound 238]: the IC50 was above 10000 nM.

`N#Cc1ccc(Oc2cc(F)c(S(=O)(=O)Nc3cscn3)cc2Cl)cc1Cl` [compound 239] displayed an IC50 above 10000 nM.

`N#Cc1cc(Oc2ccc(S(=O)(=O)Nc3cscn3)cc2I)ccc1F` [compound 240]: the IC50 came to 577 nM.

As for `O=S(=O)(Nc1cscn1)c1ccc(Oc2ccc(F)c(F)c2)c(I)c1` [compound 241], the IC50 is above 10000 nM.

`N#Cc1cc(Oc2ccc(S(=O)(=O)Nc3nccs3)cc2F)ccc1F` [compound 242] displayed an IC50 of 967 nM.

`N#Cc1cc(S(=O)(=O)Nc2ncns2)ccc1Oc1c(F)cccc1Cl` [compound 251] came in with an IC50 of 1320 nM.

For `Cc1cncc(Oc2ccc(S(=O)(=O)Nc3ncns3)cc2C#N)c1` [compound 252, trifluoroacetic acid salt], the IC50 was determined as 1110 nM.

Take `N#Cc1cc(S(=O)(=O)Nc2ncns2)ccc1Oc1cccnc1` [compound 253, trifluoroacetic acid salt]: 2130 nM corresponded to half-maximal inhibition (IC50).

Regarding `CSc1ncccc1Oc1ccc(S(=O)(=O)Nc2ncns2)cc1C#N` [compound 254, trifluoroacetic acid salt], the IC50 stood at 878 nM.

Turning to `CCSc1ncccc1Oc1ccc(S(=O)(=O)Nc2ncns2)cc1C#N` [compound 255, trifluoroacetic acid salt], the IC50 amounted to 684 nM.

`COc1ccc(Oc2ccc(S(=O)(=O)Nc3ncns3)cc2C#N)c(C)c1` [compound 256] showed a concentration for half-maximal inhibition (IC50) above 4820 nM.

The compound `COc1ccc(Oc2ccc(S(=O)(=O)Nc3ncns3)cc2C#N)cc1F` [compound 257] gave a half-maximal inhibitory concentration (IC50) of 1200 nM.

`Cc1ccc(Oc2ccc(S(=O)(=O)Nc3ncns3)cc2C#N)cc1` [compound 258] came in with an IC50 of 3120 nM.

The compound `CCOc1cc(C)ccc1Oc1ccc(S(=O)(=O)Nc2ncns2)cc1C#N` [compound 259] had an IC50 of 3130 nM.

The compound `Cc1cccc(Oc2ccc(S(=O)(=O)Nc3ncns3)cc2C#N)c1` [compound 260] yielded an IC50 of 1960 nM.

The compound `COc1ccc(Cl)c(Oc2ccc(S(=O)(=O)Nc3ncns3)cc2C#N)c1` [compound 261] yielded an IC50 of 1820 nM.

With `CC(C)Oc1ccc(F)cc1Oc1ccc(S(=O)(=O)Nc2ncns2)cc1C#N` [compound 262], the midpoint of inhibition, the IC50, lay at 3580 nM.

Regarding `COc1cccc(Cl)c1Oc1ccc(S(=O)(=O)Nc2ncns2)cc1C#N` [compound 263], the midpoint of inhibition, the IC50, lay at 2250 nM.

Consider `COc1c(F)ccc(Oc2ccc(S(=O)(=O)Nc3ncns3)cc2C#N)c1C` [compound 264], for which 1650 nM corresponded to half-maximal inhibition (IC50).

Consider `COc1cccc(F)c1Oc1ccc(S(=O)(=O)Nc2ncns2)cc1C#N` [compound 265], for which inhibition was half-maximal at 2430 nM (IC50).

In turn, `COc1c(Oc2ccc(S(=O)(=O)Nc3ncns3)cc2C#N)ccc(F)c1C` [compound 266] showed an IC50 of 1570 nM. Compared with the last compound, the IC50 is about 1.5-fold lower.

`COc1cc(Cl)ccc1Oc1ccc(S(=O)(=O)Nc2ncns2)cc1C#N` [compound 267] returned an IC50 of 930 nM.

The compound `COc1ccc(Oc2ccc(S(=O)(=O)Nc3ncns3)cc2C#N)cc1Cl` [compound 268] gave a 50% inhibitory concentration (IC50) of 1470 nM.

`COc1cc(Cl)cc(Oc2ccc(S(=O)(=O)Nc3ncns3)cc2C#N)c1` [compound 269] displayed an IC50 of 278 nM.

`COc1cc(F)c(F)cc1Oc1ccc(S(=O)(=O)Nc2ncns2)cc1C#N` [compound 270] showed an IC50 of 957 nM. This IC50 lies about 3.4-fold higher than the previous one.

The compound `COc1ccccc1Oc1ccc(S(=O)(=O)Nc2ncns2)cc1C#N` [compound 271] showed a half-maximal inhibitory concentration (IC50) of 4540 nM. This IC50 is about 4.7-fold higher than that of the compound before.

On to `Cc1ccncc1Oc1ccc(S(=O)(=O)Nc2ncns2)cc1C#N` [compound 272, trifluoroacetic acid salt], for which the half-inhibitory concentration (IC50) was above 4320 nM.

The compound `CCc1ncccc1Oc1ccc(S(=O)(=O)Nc2ncns2)cc1C#N` [compound 273, trifluoroacetic acid salt] gave a half-maximal inhibitory concentration (IC50) above 10000 nM.

In turn, `CC(C)c1ncccc1Oc1ccc(S(=O)(=O)Nc2ncns2)cc1C#N` [compound 274, trifluoroacetic acid salt] gave an IC50 above 10000 nM.

For the compound `Cc1ccnc(C)c1Oc1ccc(S(=O)(=O)Nc2ncns2)cc1C#N` [compound 275, trifluoroacetic acid salt], the IC50 is above 10000 nM.

The compound `CCc1nc(C)ccc1Oc1ccc(S(=O)(=O)Nc2ncns2)cc1C#N` [compound 276, trifluoroacetic acid salt] yielded an IC50 above 10000 nM.

`COc1ccc(F)cc1Oc1ccc(S(=O)(=O)Nc2ncns2)cc1C#N` [compound 277] gave an IC50 above 5430 nM.

The compound `CC(C)Oc1ccccc1Oc1ccc(S(=O)(=O)Nc2ncns2)cc1C#N` [compound 278] showed a half-inhibitory concentration (IC50) of 2740 nM.

In turn, `CCOc1ccc(Oc2ccc(S(=O)(=O)Nc3ncns3)cc2C#N)cc1` [compound 279] gave an IC50 above 10000 nM.

Take `CCOc1cccc(Oc2ccc(S(=O)(=O)Nc3ncns3)cc2C#N)c1` [compound 280]: the midpoint of inhibition, the IC50, lay at 2290 nM.

In turn, `CCOc1ccccc1Oc1ccc(S(=O)(=O)Nc2ncns2)cc1C#N` [compound 281] yielded an IC50 of 3250 nM.

For the compound `COc1ccc(F)c(Oc2ccc(S(=O)(=O)Nc3ncns3)cc2C#N)c1F` [compound 282], the IC50 stood at 1660 nM.

In turn, `COc1c(Cl)cccc1Oc1ccc(S(=O)(=O)Nc2ncns2)cc1C#N` [compound 283] came in with an IC50 above 8570 nM.

For `COc1ccc(C)cc1Oc1ccc(S(=O)(=O)Nc2ncns2)cc1C#N` [compound 284], the IC50 is 2520 nM.

In turn, `COc1cc(C)ccc1Oc1ccc(S(=O)(=O)Nc2ncns2)cc1C#N` [compound 285] returned an IC50 of 5590 nM.

Turning to `COc1cc(F)ccc1Oc1ccc(S(=O)(=O)Nc2ncns2)cc1C#N` [compound 286], the IC50 is 1010 nM.
